From the supplement of paper PMC4862054

Columns and labels:
Conditions in all cases: incubation time: 72 h
[1] = test system: HDQ-P1; assay: normalised viability (% of control), CellTiter-Blue; higher = more viable cells (about 100 = DMSO control)
Summary of the method: (§1)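 The reported figure is normalised viability at a single listed concentration of the series. Breast cancer cell lines (20 µl suspension) went onto 384-well plates holding compound in 5 µl medium for 72 h. CellTiter-Blue (2.5 µl, 2 h, 37 °C) was read by fluorescence at 560/590 nm, and each plate was scaled to vehicle at 100 and a positive kill control at 0.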

[2] = test system: CAL-120; assay: as above
Summary of the method: as §1

[3] = test system: DU-4475; assay: drug sensitivity score (DSS), CellTox Green (DSS (AUC-based score)); higher = stronger drug effect (viability inhibition or cytotoxicity); extreme values may be limits of the assay
Summary of the method: (§2)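 Breast cancer cells were seeded into 384-well plates containing compound at 5 concentrations in 10-fold steps over a compound-specific 10,000-fold range and incubated 72 h. After CellTox Green and CellTiter-Glo readings, each plate was normalised to 0.1 % DMSO and a positive kill control. The drug sensitivity score rests on the area under the fitted dose-response curve.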

[4] = test system: CAL-148; assay: as above
Summary of the method: as §2

[5] = test system: MDA-MB-453; assay: normalised viability (% of control), CellTiter-Blue; higher = more viable cells (100 = DMSO, 0 = benzethonium chloride kill control)
Protocol: (§3)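 DSRT, CellTiter-Blue viability, 72 h incubation. Signal is normalised to DMSO and benzethonium chloride controls. Value is the normalised response at dose 1.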

[6] = test system: CAL-85-1; assay: as above
Protocol: as §3

[7] = test system: MFM-223; assay: as above
Protocol: as §3

[8] = test system: DU-4475; assay: as above
Protocol: as §3

[9] = test system: CAL-148; assay: as above
Protocol: as §3

[10] = test system: HCC1143; assay: as above
Protocol: as §3

[11] = test system: CAL-51; assay: as above
Protocol: as §3

[12] = test system: BT-549; assay: as above
Protocol: as §3

[13] = test system: HDQ-P1; assay: as above
Protocol: as §3

[14] = test system: MDA-MB-231; assay: as above
Protocol: as §3

[15] = test system: HCC1937; assay: as above
Protocol: as §3

[16] = test system: BT-474; assay: as above
Protocol: as §3

[17] = test system: SK-BR-3; assay: as above
Protocol: as §3

[18] = test system: CAL-120; assay: as above
Protocol: as §3

[19] = test system: MDA-MB-436; assay: as above
Protocol: as §3

[20] = test system: HCC1599; assay: as above
Protocol: as §3

[21] = test system: Hs578T; assay: as above
Protocol: as §3

[22] = test system: MDA-MB-468; assay: as above
Protocol: as §3

[23] = test system: MDA-MB-453; assay: normalised viability (% of control), CellTiter-Blue; higher = more viable cells (about 100 = DMSO control)
Protocol: (§4)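 DSRT, CellTiter-Blue viability, 72 h incubation. Signal is normalised to DMSO and benzethonium chloride controls. Value is the normalised response at dose 9.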

[24] = test system: CAL-85-1; assay: as above
Protocol: as §4

[25] = test system: DU-4475; assay: as above
Protocol: as §4

[26] = test system: CAL-148; assay: as above
Protocol: as §4

[27] = test system: CAL-51; assay: as above
Protocol: as §4

[28] = test system: HDQ-P1; assay: as above; remark: listed apart in the source
Protocol: as §4

Cn1cncc1[C@@](N)(c1ccc(Cl)cc1)c1ccc2c(c1)c(-c1cccc(Cl)c1)cc(=O)n2C [Tipifarnib]
Conditions	normalised viability [%]
[1], 30 nM	68
[2], 1000 nM	47.4
[5], 1 nM	94.7
[6], 1 nM	81.1
[7], 1 nM	87.6
[8], 1 nM	104
[9], 1 nM	102
[10], 1 nM	85.6
[11], 1 nM	98.4
[12], 1 nM	120
[13], 1 nM	105
[14], 1 nM	98.8
[15], 1 nM	89
[16], 1 nM	92.1
[17], 1 nM	92.5
[18], 1 nM	78
[19], 1 nM	98.5
[20], 1 nM	90.4
[21], 1 nM	93.2
[22], 1 nM	105
[23], 10000 nM	19.9
[24], 10000 nM	47.2
[25], 10000 nM	15.7
[26], 10000 nM	26.7
[27], 10000 nM	20.4
[28], 10000 nM	49.6

Conditions	drug sensitivity score
[3]	0
[4]	0

CC[C@]1(O)C[C@H]2CN(CCc3c([nH]c4ccccc34)[C@@](C(=O)OC)(c3cc4c(cc3OC)N(C=O)[C@H]3[C@@](O)(C(=O)OC)[C@H](OC(C)=O)[C@]5(CC)C=CCN6CC[C@]43[C@@H]65)C2)C1 [Vincristine]
Conditions	normalised viability [%]
[1], 3 nM	91.3
[1], 30 nM	58.7
[2], 100 nM	19.3
[2], 1000 nM	19.2
[5], 0.1 nM	107
[5], 1 nM	88.5
[6], 0.1 nM	86.5
[6], 1 nM	91.8
[7], 0.1 nM	99.7
[7], 1 nM	91
[8], 0.1 nM	97.6
[8], 1 nM	88.9
[9], 0.1 nM	87.6
[9], 1 nM	108
[10], 0.1 nM	80
[10], 1 nM	89.6
[11], 0.1 nM	103
[11], 1 nM	93.8
[12], 0.1 nM	93.1
[12], 1 nM	93.5
[13], 0.1 nM	90
[13], 1 nM	95.3
[14], 0.1 nM	95.8
[14], 1 nM	82.5
[15], 0.1 nM	74.4
[15], 1 nM	79.4
[16], 0.1 nM	97.2
[16], 1 nM	41.5
[17], 0.1 nM	87.9
[17], 1 nM	25.5
[18], 0.1 nM	77.9
[18], 1 nM	57.7
[19], 0.1 nM	89.4
[19], 1 nM	109
[20], 0.1 nM	119
[20], 1 nM	93.9
[21], 0.1 nM	120
[21], 1 nM	92.6
[22], 0.1 nM	87.5
[22], 1 nM	49.2
[23], 1000 nM	38.5
[23], 10000 nM	41.6
[24], 1000 nM	47.4
[24], 10000 nM	39.8
[25], 1000 nM	7.67
[25], 10000 nM	8.66
[26], 1000 nM	21.8
[26], 10000 nM	28.5
[27], 1000 nM	11.7
[27], 10000 nM	10.7
[28], 1000 nM	41.5
[28], 10000 nM	37.9

Conditions	drug sensitivity score
[3]	0
[4]	0
